Results on three molecules are retold here after article PMC3760277 (Journal of neurovirology, 2013).

Series [1] can be described thus: Steady-state plasma pharmacokinetics. The note with it: for AUC(0-t): AUC0–24, Visit 2 (day 21), ATV/RTV 300/100 mg once daily with CEP-1347 50 mg twice daily, arithmetic mean (SD), n=19. It counts as in vivo, HIV-infected patients (human).
For series [2] the following is noted: rats; background statement, ref not given; cited from earlier work.
For a further series, the system named is HIV-1. Description: Plasma viral load during the 21-day study. The class given is in vivo, HIV-infected patients (human). The note with it: day 21, antiretroviral therapy (ATV/RTV + TDF/FTC) with concurrent CEP-1347 50 mg twice daily; baseline 3.80±3.70.
A short description of series [3]: Safety and tolerability in the clinical study. The note with it: CEP-1347 50 mg twice daily for 20 days with ATV/RTV and TDF/FTC. The class given is in vivo, HIV-infected patients (human).
For series [4] the following is noted: monkeys; background statement, ref not given; cited from earlier work.
The conditions of series [5]: cited from earlier work.
[6] abbreviates: CEP-1347 50 mg twice daily with ATV/r, day 21, mean (SD).

Like-named read-outs stand apart in the source and are kept apart here.

In general, Cmax refers to the maximum level reached in the sampled fluid or tissue. By half-life is commonly meant how long it takes for the measured level to halve. As usually defined, the AUC(0-t) is the area under the concentration-time curve up to a stated or last time point. The AUC is the area under the concentration-time curve, a measure of exposure. A higher AUC goes with more exposure. The Tmax is the time at which the peak concentration occurs. As a reminder, the clearance is the rate of elimination divided by the concentration.

For the molecule `CC(C)c1nc(CN(C)C(=O)N[C@H](C(=O)N[C@@H](Cc2ccccc2)C[C@H](O)[C@H](Cc2ccccc2)NC(=O)OCc2cncs2)C(C)C)cs1` [RTV, Ritonavir], in series [1] (human, in vivo), the “AUC0–24 GMR (90 % CI)” value is 1.12 (0.90, 1.39); the “Cmax GMR (90 % CI)” value is 1.07 (0.85, 1.34); the “R GMR (90 % CI)” value is on record as 1.05 (0.94, 1.16); the “T1/2 GMR (90 % CI)” value is on record as 1.20 (0.92, 1.56). In addition, the “Tmax GMR (90 % CI)” value in series [1] (human, in vivo) is on record as 0.89 (0.79, 1.15). Besides, in series [1] (human, plasma, oral), the concentration peaked (Cmax) at 1400 ng/mL, the half-life was 5.9 h and the AUC(0-t) turned out to be 13200 ng·h/mL. The molecule also showed a half-life in series [1] (human, plasma, oral, 50 mg) of 5.8 h.

In the case of `CCSCc1ccc2c(c1)c1c3c(c4c5cc(CSCC)ccc5n5c4c1n2[C@H]1C[C@](O)(C(=O)OC)[C@]5(C)O1)CNC3=O` [CEP-1347], the “recovery of single oral doses in feces” value in series [2] is recorded as “at least 95%”. Besides, in series [1] (setting [6]), the Clss/F is 22.3 (15.3) L/h and the “R (accumulation ratio)” value is 5.1 (1.5). Besides, in series [1] (human, plasma, oral, 50 mg), the AUC is 2630 ng·h/mL, the Cmax came to 427 ng/mL, the time to peak (Tmax) amounted to 3 h and the half-life turned out to be 35.2 h. For the same molecule, the “average plasma viral load” value in the series on HIV-1 was found to be 2.41±2.03 log copies/mL. Besides, in series [3], the tolerability result is on record as “well tolerated”. Also, in series [4], the “recovery of single oral doses in feces” value is reported as “at least 95%”.

Take `COC(=O)N[C@H](C(=O)N[C@@H](Cc1ccccc1)[C@@H](O)CN(Cc1ccc(-c2ccccn2)cc1)NC(=O)[C@@H](NC(=O)OC)C(C)(C)C)C(C)(C)C` [ATV, Atazanavir]: the Clss/F in series [1] (Visit 1 (day 1), ATV/RTV before CEP-1347, mean (SD)) is listed as 12.0 (10.3) L/h. This molecule yielded a Clss/F in series [1] (Visit 1 (day 1), ATV/RTV before CEP-1347, mean (SD), listed as atazanavir) of 12.0 L/h. Further, the Clss/F in series [1] (Visit 2 (day 21), ATV/RTV with CEP-1347 50 mg twice daily, mean (SD)) is given as 9.3 (10.7) L/h. In addition, in series [1] (human, in vivo), the “AUC0–24 GMR (90 % CI)” value is given as 1.30 (0.92–1.85), the “Clss/F GMR (90 % CI)” value is on record as 0.77 (0.54–1.09), the “Cmax GMR (90 % CI)” value is listed as 1.14 (0.79–1.67) and the “R GMR (90 % CI)” value is given as 1.12 (1.05–1.20). Further, in series [1] (human, in vivo), the “Tmax GMR (90 % CI)” value is listed as 0.86 (0.67–1.11), the “increase in T1/2” value is recorded as 31% and the “increase in accumulation ratio (R)” value is reported as 15%. In series [1] (human, plasma, oral), the Cmax amounted to 4000 ng/mL, the time of peak concentration (Tmax) stood at 2 h, the half-life is 12.7 h and the AUC(0-t) worked out at 49600 ng·h/mL. Besides, in series [1] (human, plasma, oral, 50 mg), the maximum concentration (Cmax) was 4500 ng/mL, the Tmax came out at 2 h and the half-life is 15.9 h. Moreover, in series [5] (population analysis, patients given ATV/r at 300/100 mg/day, ref Colombo et al. 2006), the clearance is on record as 12.9 L/h. In addition, the clearance in series [5] (previously reported in patients, ref Haberl et al. 2010) is given as 8.5 L/h.
